Laboratory results: patent US20190240379A1, “NOVEL COMPOSITIONS ACTIVE ON ADIPOCYTES” (BIOXIS PHARMACEUTICALS, priority 2016, published 2019)

Test system: 3T3L1 murine adipocyte line
Procedure: For example, a 2% (w/w) chitosan preparation obtained in example 1 (DA: 2%, Mw: 450000 g·mol^−1, Bioxis Pharmaceuticals S.A.S.) is diluted in a saline solution (NaCl at 300 mOsmol·l^−1) containing 1% (w/w) of acetic acid in a well (in 24-well plates) and then distributed over half of the other wells, dried, rinsed with PBS and then with the culture medium before cell seeding (3T3L1 murine adipocyte line ATCC CL-173™). When the cells are at confluence, differentiation is induced by adding a differentiation medium. The cells are then treated with a small dose of oleic acid (OA, 2.5 μM) for 6 hours. The cells are put back in a culture medium without OA until the next day in order to avoid any background noise from the OA. Proliferation is analysed by phase contrast microscopy (×20): the images are taken at various times (2 days and 5 days post seeding), at an identical position for each well. […] The marking is observed in fluorescence microscopy and quantification carried out by imaging. The imaging and the fluorescence quantification are carried out on a real-time imaging station. The controls are fixed before the induction of differentiation (confluence, DO).

**Q.** Which results are given for chitosan?
**A.** chitosan concentration with toxic effect on the 3T3L1 line: greater than or equal to 2%; morphology of the cells: aggressive or even toxic medium
